Tests used:
[1] = target: human platelets (Homo sapiens, UniProt P05106+P08514); test: 125I-Fibrinogen binding to platelets; settings: 0.1 μM 125I-fibrinogen, thrombin or activator peptide stimulus
Procedure: Preparation of Human Platelets
Human blood was collected by venipuncture in tubes containing one-tenth volume of acid-citrate-dextrose as an anticoagulant. Platelet-rich plasma was prepared by centrifugation of the blood for 10 min at 500 g at room temperature. The platelet-rich plasma was decanted and one-tenth volume of acid-citrate-dextrose was added followed by centrifugation at 1000 g at room temperature for 10 min to sediment the platelets. The platelets were suspended in two ml modified Tyrode's buffer (2 M NaCl, 0.5 M dextrose, 0.2 M NaHCO3, 0.1 M KCl, 0.1 M MgCl2, 0.1 M NaH2 PO4 and 0.1 M HEPES, pH 7.3) containing 0.35% bovine serum albumin and then filtered on a 50 ml column of Sepharose 2B (Pharmacia) equilibrated with Tyrode's buffer. Finally, the platelets were counted in an automated hematology analyzer.
Human low solubility fibrinogen (Kabi) was prepared as described previously (Lipinska et al., 1974). For ^125 I labeling, fibrinogen (1 mg) was incubated with three Iodo-Beads (Pierce Chemical Co.) and 1 mCi of Na^125 I for 15 min after with ^125 I-fibrinogen was separated from free radioactivity by filtration through a PD-10 column (Pharmacia). The specific activity was approximately 1-5×10^17 CPM/mol fibrinogen.
Binding of fibrinogen to human platelets was performed as described by Plow and Ginsberg (1981). Binding assays contained, in a volume of 0.2 ml, 1-2×10^7 platelets, 0.1 μM ^125 I-fibrinogen, 2 mM CaCl2 and 0.1 U/ml thrombin or various concentrations of activator peptides as a stimulus. Incubations were carried out in 1.2 ml Eppendorf microcentrifuge tubes at room temperature for 30 min and then duplicate 75 μl aliquots were layered onto 0.4 ml of 20% sucrose in Tyrode's buffer containing 1% bovine serum albumin and platelets were sedimented by centrifugation at 10,000 g for 5 min in a Beckman microcentrifuge. Tips of the centrifuge tubes were amputated and bound ^125 I-fibrinogen was measured in a gamma counter (LKB/Pharmacia). Nonspecifically bound radioactivity was determined in incubations in which activators were excluded and these values were 1-5% of those obtained with thrombin activation.

[2] = target: T1, Purified GPIIbIIIa (Homo sapiens, UniProt P05106+P08514); test: GPIIbIIIa (fibrinogen) enzyme-linked immunoassay (ELISA); settings: purified human platelet GPIIbIIIa binding to immobilized fibrinogen; read-out: GPIIbIIIa (Fibrogen ELISA IC50)
T1 construct: GPIIbIIIa was purified from human platelets; from tissue; host or cells: human platelets
Procedure: GPIIbIIIa Enzyme-Linked Immunoassay
Low solubility fibrinogen, prepared as described by Lipinska et al., J. Lab. Clin. Med., 84, 509-516 (1974) (human, KABI) was immobolized at 5 μg/well on Immunolon 2-96 well plates (inculated overnight at 4° to bind to the wells). The wells were blocked with 0.5% bovine serum albumin in buffer A ([…] Tris-HCl, pH 7.5, 2 mM CaCl2, 120 mM […], and 0.02% NaN3) for two hours at room temperature. All subsequent steps were carried out at room temperature. The wells were washed three times with buffer A plus 0.5% Tween 20 (BioRad). Purified GPIIbIIIa (2 μg/well) plus synthetic peptides supplements at the indicated concentrations were conincubated for 90 to 120 min with immobilized fibrinogen. The wells were washed as above, then the anti-GPIIbIIIa monoclonal antibody, CD41a, was added to each well and incubated for 60 min. After another three washes, goat anti-mouse horseradish peroxidase conjugate was added to each well (60 min). The wells were washed three times with buffer A plus detergent, followed by two washes with buffer A minus detergent. The peroxidase substrate, 3,3',5,5'-tetramethylbenzidine (Kirkegaard and Perry Laboratories, Inc.) was added to the wells for color development. The reaction was stopped with 0.3N H2 SO4, and absorbances were measured at 450 mn using a microplate reader (Multiscan II, Flow-Titertek).
GPIIbIIIa was purified from human platelets as described by Fitzgerald, et al., Anal. Biochem., 151, 169-177 (1985), except that the final gel purification step was performed with an HW55 size exclusion column (Waters, Advanced Protein Purification System), instead of Sephacryl S-300. The protein, greater than 90% pure as assessed by SDS polyacrylamide gel electrophoresis, was stored at -80° C. in small aliquots.

[3] = target: Human platelet rich plasma (PRP) (Homo sapiens, UniProt P05106+P08514); settings: read-out: Platelet Aggregation ADP Induced IC50, ADP (1 μM)
Procedure: Platelet Aggregation In Vitro
Human platelet rich plasma (PRP) was prepared by centrifugation at 200×g for 10 min. at room temperature. Platelet poor plasma (PPP) was prepared by centrifugation at 2000×g for 10 min. PRP was exposed only to plastic laboratory ware. All experiments were completed within 3 hr of blood collection. Platelet aggregation was measured photometrically using a Chrono-log dual channel aggregometer (Chrono-log Corp., Haverstown, Pa. 19083). One hundred percent light transmission was defined with autologus PPP. Percent maximal change in light transmission was determined from PRP following addition of ADP (1 μM) or thrombin. […] MDL 102,530 was incubated with PRP (0.45 ml) for 30 sec prior to the addition of ADP or thrombin. Aggregation was measured in a total volume of 0.5 ml. Inhibitory responses were expressed s percent inhibition when compared to a control value. The concentration resulting in 50% inhibition of aggregation (IC50) was calculated by simple linear regression.

Chain of human platelets (P08514 32-1039): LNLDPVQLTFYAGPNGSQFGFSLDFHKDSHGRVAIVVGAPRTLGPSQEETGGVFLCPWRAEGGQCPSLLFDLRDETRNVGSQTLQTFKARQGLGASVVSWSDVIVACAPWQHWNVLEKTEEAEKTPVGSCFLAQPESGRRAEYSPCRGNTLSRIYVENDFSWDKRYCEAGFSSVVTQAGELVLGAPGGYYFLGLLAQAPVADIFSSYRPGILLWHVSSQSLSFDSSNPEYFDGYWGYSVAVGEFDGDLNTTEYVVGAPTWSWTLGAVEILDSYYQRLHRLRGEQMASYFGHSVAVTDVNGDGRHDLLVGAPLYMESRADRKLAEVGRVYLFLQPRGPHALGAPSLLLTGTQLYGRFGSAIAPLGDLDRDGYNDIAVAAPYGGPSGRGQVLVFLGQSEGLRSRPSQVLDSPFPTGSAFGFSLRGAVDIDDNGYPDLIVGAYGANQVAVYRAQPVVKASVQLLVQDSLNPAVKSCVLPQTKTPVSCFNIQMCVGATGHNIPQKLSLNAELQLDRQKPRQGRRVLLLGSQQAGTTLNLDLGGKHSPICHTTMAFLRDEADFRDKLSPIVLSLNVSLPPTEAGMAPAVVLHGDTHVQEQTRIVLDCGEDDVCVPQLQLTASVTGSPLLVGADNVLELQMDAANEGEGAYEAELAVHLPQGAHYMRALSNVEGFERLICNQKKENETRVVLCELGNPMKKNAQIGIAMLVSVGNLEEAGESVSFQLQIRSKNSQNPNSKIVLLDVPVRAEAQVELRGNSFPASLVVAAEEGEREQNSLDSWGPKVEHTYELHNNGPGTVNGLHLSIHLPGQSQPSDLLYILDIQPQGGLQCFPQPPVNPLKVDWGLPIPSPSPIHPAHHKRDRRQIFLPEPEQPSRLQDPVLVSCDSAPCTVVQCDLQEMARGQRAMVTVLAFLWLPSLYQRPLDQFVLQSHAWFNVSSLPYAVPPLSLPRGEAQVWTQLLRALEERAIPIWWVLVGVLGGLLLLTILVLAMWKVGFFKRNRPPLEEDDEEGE
Chain of human platelets (P05106 27-788): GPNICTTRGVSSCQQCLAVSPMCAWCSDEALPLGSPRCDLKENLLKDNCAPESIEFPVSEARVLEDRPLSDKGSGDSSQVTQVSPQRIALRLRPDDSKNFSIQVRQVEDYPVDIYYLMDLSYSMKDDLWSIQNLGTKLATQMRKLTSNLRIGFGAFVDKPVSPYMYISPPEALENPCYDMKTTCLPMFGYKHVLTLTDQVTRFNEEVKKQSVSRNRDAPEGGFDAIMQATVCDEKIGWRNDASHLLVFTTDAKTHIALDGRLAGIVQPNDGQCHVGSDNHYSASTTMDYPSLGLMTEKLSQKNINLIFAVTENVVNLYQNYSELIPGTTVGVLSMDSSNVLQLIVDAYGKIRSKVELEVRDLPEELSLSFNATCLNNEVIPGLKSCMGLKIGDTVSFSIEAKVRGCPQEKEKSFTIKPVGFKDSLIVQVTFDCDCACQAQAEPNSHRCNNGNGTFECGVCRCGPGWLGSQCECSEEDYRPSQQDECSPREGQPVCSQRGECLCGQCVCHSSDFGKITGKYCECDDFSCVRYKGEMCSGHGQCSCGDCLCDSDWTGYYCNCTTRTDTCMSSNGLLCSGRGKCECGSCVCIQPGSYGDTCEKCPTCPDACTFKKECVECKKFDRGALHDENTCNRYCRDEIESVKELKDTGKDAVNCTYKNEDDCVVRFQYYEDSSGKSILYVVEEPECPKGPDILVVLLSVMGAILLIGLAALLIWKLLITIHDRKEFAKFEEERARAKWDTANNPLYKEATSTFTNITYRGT
T1 sequence (P08514 32-887 limits assumed): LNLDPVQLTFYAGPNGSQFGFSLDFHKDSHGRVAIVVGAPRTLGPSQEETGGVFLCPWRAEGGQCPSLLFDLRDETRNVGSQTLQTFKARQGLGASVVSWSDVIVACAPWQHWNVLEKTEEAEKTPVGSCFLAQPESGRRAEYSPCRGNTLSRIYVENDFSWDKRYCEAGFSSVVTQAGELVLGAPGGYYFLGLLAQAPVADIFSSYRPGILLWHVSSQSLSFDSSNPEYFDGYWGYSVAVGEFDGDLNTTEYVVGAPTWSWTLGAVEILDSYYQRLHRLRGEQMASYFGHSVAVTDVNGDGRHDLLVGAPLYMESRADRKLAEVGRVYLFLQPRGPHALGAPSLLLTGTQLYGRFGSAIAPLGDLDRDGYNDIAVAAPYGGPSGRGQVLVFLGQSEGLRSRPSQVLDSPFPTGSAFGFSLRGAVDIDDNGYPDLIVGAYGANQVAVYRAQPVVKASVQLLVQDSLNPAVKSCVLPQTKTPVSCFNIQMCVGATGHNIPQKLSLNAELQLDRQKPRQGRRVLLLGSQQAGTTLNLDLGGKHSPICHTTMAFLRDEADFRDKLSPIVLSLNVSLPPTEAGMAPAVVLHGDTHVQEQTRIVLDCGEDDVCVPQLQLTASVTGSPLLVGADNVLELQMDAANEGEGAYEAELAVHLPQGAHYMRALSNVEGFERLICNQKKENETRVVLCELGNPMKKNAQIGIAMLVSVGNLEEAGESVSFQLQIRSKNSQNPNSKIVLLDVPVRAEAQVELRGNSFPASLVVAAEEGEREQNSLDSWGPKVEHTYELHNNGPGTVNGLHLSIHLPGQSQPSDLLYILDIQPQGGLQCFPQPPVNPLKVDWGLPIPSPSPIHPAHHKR
T1 sequence (P08514 891-1039 partner limits assumed): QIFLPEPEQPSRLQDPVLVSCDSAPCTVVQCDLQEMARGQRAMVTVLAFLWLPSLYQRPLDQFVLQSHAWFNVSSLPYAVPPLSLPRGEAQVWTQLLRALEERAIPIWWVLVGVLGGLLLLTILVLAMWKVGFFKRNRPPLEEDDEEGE
T1 sequence (P05106 27-788): as the sequence (P05106 27-788) above
Chain of Human platelet rich plasma (PRP) (P08514 32-1039): as the sequence (P08514 32-1039) above
Chain of Human platelet rich plasma (PRP) (P05106 27-788): as the sequence (P05106 27-788) above

Row | Structure (SMILES) | IC50 [1] | IC50 [2] | IC50 [3]
1 | C[C@H]1CN[C@@H](CCCNC(=N)N)C(=O)NCC(=O)N[C@@H](CC(=O)O)C(=O)N[C@H](C(=O)NCc2ccccc2)CCC(=O)N1 [I] | 2400 nM | 200 nM | 
2 | C[C@H]1CN(CCCC(=O)O)[C@@H](CCCNC(=N)N)C(=O)NCC(=O)N[C@@H](CC(=O)O)C(=O)N[C@H](C(=O)NCc2ccccc2)CCC(=O)N1 [II] | 1200 nM | 540 nM | 
3 | C[C@H]1CN(C(=O)CCN)[C@@H](CCCNC(=N)N)C(=O)NCC(=O)N[C@@H](CC(=O)O)C(=O)N[C@H](C(=O)NCc2ccccc2)CCC(=O)N1 [III] | 2400 nM | 3000 nM | 49200 nM
4 | C[C@H]1CN(CCCc2ccccc2)[C@@H](CCCNC(=N)N)C(=O)NCC(=O)N[C@@H](CC(=O)O)C(=O)N[C@H](C(=O)NCc2ccccc2)CCC(=O)N1 [IV] | 270 nM | 300 nM | 6400 nM

From patent US6107275A, “Cyclic Antiplatelet peptides with pseudo-bond” (Merrell Pharmaceuticals Inc., priority 1997, dated 2000)
